Reference: patent publication US20240261294A1, “METHOD FOR TREATING IDH INHIBITOR-RESISTANT SUBJECTS” (Eli Lilly and Company, priority 2021, published 2024)
Residue numbers refer to the chain shown, from its start. Where two headings read alike, the source gives them in different places.

Assays:
IDH2 R140Q + 1319M trans = target: T1, IDH2 R140Q + 1319M trans (Homo sapiens, UniProt P48735, I319M/R140Q); test: Inhibition of 2-HG production in IDH2 mutant U-87 MG cells; assay type: cell-based; conditions: 72 hours incubation, 12.5K cells/well
T1 sequence (P48735 40-452 R140Q): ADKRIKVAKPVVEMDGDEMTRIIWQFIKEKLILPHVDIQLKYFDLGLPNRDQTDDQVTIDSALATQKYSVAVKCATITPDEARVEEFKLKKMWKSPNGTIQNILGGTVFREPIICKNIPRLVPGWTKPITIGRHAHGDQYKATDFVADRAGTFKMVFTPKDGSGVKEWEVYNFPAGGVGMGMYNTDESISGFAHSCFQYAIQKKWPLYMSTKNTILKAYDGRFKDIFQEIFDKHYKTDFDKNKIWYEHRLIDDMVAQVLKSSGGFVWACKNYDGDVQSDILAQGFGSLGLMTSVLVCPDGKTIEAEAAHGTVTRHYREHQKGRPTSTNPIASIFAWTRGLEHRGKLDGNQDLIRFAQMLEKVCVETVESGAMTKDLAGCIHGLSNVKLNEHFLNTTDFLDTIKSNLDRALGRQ
T1 sequence (P48735 40-452 I319M): T1 sequence (P48735 40-452 R140Q) with Q101R, I280M

IDH2 R172K_P167R cis = target: T2, IDH2 R172K_P167R cis (Homo sapiens, UniProt P48735, P167R/R172K); test: as above; assay type: cell-based; conditions: 16 hours incubation, 50K cells/well, 100 μl media/well, read-out: Relative IC50 (nM) Mean, inhibition of 2-HG production
T2 construct: expressed in transfected cells; host or cells: U-87 MG
T2 sequence (P48735 40-452 P167R/R172K): T1 sequence (P48735 40-452 R140Q) with Q101R, P128R, R133K

C=CC(=O)N1CCN([C@@H](CC2CC2)c2ccc([C@H](C)Nc3ncc4c(n3)N(CC)C(=O)OC4)cc2)CC1 [Compound A, 7-[[(1S)-1-[4-[(1S)-2-cyclopropyl-1-(4-prop-2-enoylpiperazin-1-yl)ethyl]phenyl]ethyl]amino]-1-ethyl-4H-pyrimido[4,5-d][1,3]oxazin-2-one]
IC50 (IDH2 R140Q + 1319M trans; IDH2 R140Q + 1319M trans, 150 μl media/well, read-out: IC50, inhibition of 2-HG production): 12.7 nM
IC50 (IDH2 R140Q + 1319M trans; IDH2 R140Q_I319M trans, read-out: Relative IC50 (nM) Mean, inhibition of 2-HG production): 18 nM
IC50 (IDH2 R172K_P167R cis): 119 nM
